Measured values published in patent US11331364B2, “Use for JNK inhibitor molecules for treatment of various diseases” (Xigen Inflammation Ltd., priority 2014, dated 2022).
Peptide text beside a SMILES is read from it.

Columns and labels:
[1] = Stability (half-life) in human serum, UPLC-MS; settings: human serum (10 and 50% in PBS; FIG. 5: 50%), 0.1 mM peptide
Description: The experiment was performed as described by Tugyi et al. (Proc Natl Acad Sci USA, 2005, 413-418). The remaining intact peptide was quantified by UPLC-MS.

[2] = tested on: acute CYP-induced cystitis in female Sprague-Dawley rats; assay: Cyclophosphamide-induced acute cystitis, intravesical treatment, visceral pain and bladder inflammation; assay type: in vivo, rat; settings: 50 mg/mL, i.ves.
Description: This preclinical model is well-used to test therapeutic approaches for the treatment of interstitial cystitis/painful bladder syndrome (IC/PBS).
Animals were acclimatized to the laboratory conditions for at least 3 days before the start of any experiments. The animals were allocated to the following four experimental groups (n=10 animals per group):
To induce acute cystitis, a single i.p. injection of CYP at a dose of 150 mg/kg in a final volume of 5 mL/kg was performed. Control rats received physiological saline under the same experimental conditions as CYP (final volume of 5 mL/kg, i.p.).
On the day of each experiment, weight of rats was recorded.
Standardized conditions including fixed time-of-day (a.m. to minimize the potential circadian variations in the behaviours responses) and single-experimenter testing of all animals were applied to minimize variability behavior-based pain testing. Visceral pain including allodynia and hyperalgesia was evaluated by applying to the lower abdomen, close to the urinary bladder, a set of 8 calibrated von Frey filaments of increasing forces (1, 2, 4, 6, 8, 10, 26 and 60 g) with an interstimulus interval of 5 seconds. Prior testing, the abdominal area designed for mechanical stimulation of each animal was shaved. Animals were then placed on a raised wire mesh floor under individual transparent Plexiglas box and acclimatized for at least 30 minutes before starting the von Frey test. Filaments were then applied 1-2 seconds through the mesh floor with enough strength to cause the filament to slightly bend. Each filament was tested 3 times. Care was taken to stimulate different areas within the lower abdominal region in the vicinity of the urinary bladder to avoid desensitization.
Nociceptive behaviors were scored for each animal and each filament as follows:
The study design is schematically shown in FIG. 50 A. Birefly, acute cystitis was induced by CYP injection (i.p.) at Do (as described above).
Urinary bladders were rapidly collected and cleaned from lipoid tissue. Urinary bladders were weighed, cut at the bladder neck as well as oedema and haemorrhage scoring was performed (see table below). Finally, wall thickness was measured using a digital caliper by placing the bladder wall between the two outside jaws.

[3] = tested on: endotoxins-induced uveitis albino rat model; assay: Endotoxins-induced uveitis (EIU), single intravenous injection, clinical scoring; assay type: in vivo; set-up: key to clinical score (mean±SEM) / clinical score, median: clinical ocular inflammation score per eye, 0 to 4; settings: sub-conjunctival, 20 Dg/eye; 24 h after LPS
Description: The anti-inflammatory potency of the JNK inhibitor of SEQ ID NO: 172 was tested in albino rats following intravenous administration (EIU/LPS model). The aim of this study was to determine the effects of single intravenous injections of SEQ ID NO: 172 (0.015, 0.18, and 1.80 mg/kg) on the inflammatory response in an endotoxins-induced uveitis albino rat model and to compare these affects to those obtained with prior art JNK inhibitor of SEQ ID NO: 197 (2 mg/kg). As a further control served phosphate sodic dexamethasone (“reference”) and vehicle (0.9% NaCl).
Sixty (60) male Lewis rats were randomly divided into six (6) groups often (10) animals each. 0.9% NaCl (vehicle, “control”), SEQ ID NO: 197 at 2 mg/kg and SEQ ID NO: 172 at three concentrations (1.80 mg/kg, 0.18 mg/kg and 0.015 mg/kg) were administered by intravenous injection just before EIU induction (on the day of induction). Accordingly, phosphate sodic dexamethasone (20 Dg/eye, 5 μl; “reference”) was administered by a single sub-conjunctival injection in both eyes just before EIU induction (on the day of induction). EIU was induced by footpad injection of lipopolysaccharide (LPS, 1 mg/kg). 24 hours after LPS injection, inflammatory response was evaluated by clinical scoring.
The intensity of clinical ocular inflammation was scored on a scale from 0 to 4 for each eye: […]

[4] = tested on: established type II collagen arthritis in rats; assay: Chronic established type II collagen arthritis, daily IV 14 days; assay type: in vivo, rat
From the text: Rat collagen arthritis is an experimental model of polyarthritis that has been widely used for preclinical testing of numerous anti-arthritic agents that are either under preclinical or clinical investigation or are currently used as therapeutics in this disease. […] Animals were terminated on arthritis day 14.

[5] = tested on: Endotoxin-Induced Uveitis (EIU) model in rats; assay: Action duration in endotoxin-induced uveitis (EIU), clinical scoring and PMN cells quantification; assay type: in vivo, rat; settings: 2 mg/kg i.v. immediately before EIU induction
Description: […] (18) female Lewis rats (36 eyes) were randomly divided into 6 groups of 3 animals each. EIU was induced by a single footpad injection of 100 µl sterile pyrogen-free saline containing 200 µg of LPS (Lipopolysaccharides from Salmonella typhimurium, Sigma-Aldrich, France)(2 mg/ml).
Animals were treated 48 hours, 1 week, 2 weeks or 4 weeks before EIU induction by intravenous injection of the JNK inhibitor according to SEQ ID NO: 172 (“XG-104”) at a single dose of 1 mg/kg (dose volume 1 ml/kg) in the tail vein. Dexamethasone 2 mg/kg or vehicle (NaCl 0.9%) were injected intravenously immediately before EIU induction.
The effect of the JNK inhibitor according to SEQ ID NO: 172 (“XG-104”) on EIU was evaluated using clinical scoring and PMN cells quantification 24 hours after induction. Ocular examinations were performed by slit lamp at 24 hours i.e. at the clinical peak of the disease in this model. The intensity of clinical ocular inflammation was scored on a scale from 0 to 5 for each eye: • Grade 0: no inflammation, • Grade 1: presence of a minimal iris and conjunctival vasodilatation but without the observation of flare or cells in the anterior chamber (AC), • Grade 2: presence of moderate iris and conjunctival vessel dilation but without evident flare or cells in the AC, • Grade 3: presence of intense iris vessels dilation, flare and less than 10 cells per slit lamp, field in the AC, • Grade 4: presence of more severe clinical signs than grade 3, with more than 10 cells in the AC with or without the formation of a hypopyon, • Grade 5: presence of intense inflammatory reaction, fibrin formation in the AC and total seclusion of the pupil.
For histology, eighteen eyeballs (one per animal) were collected and fixed for 1 h at room temperature in phosphate buffered saline (PBS) containing 4% paraformaldehyde before being rinsed overnight in PBS. The next day, samples were embedded in optimal cutting temperature (OTC) compound (Tissue-Tek®, Sakura Finetek, Zoeterwoude, Netherland) and the optic nerve level using a cryostat (Leica CM 3050S, France) and mounted on super-frost slides for histology. After nuclei staining with DAPI (Sigma-Aldrich, France), sections were mounted in PBS/Glycerol (1/1) and observed by fluorescence photomicroscopy (FXA Microphot, Nikon, USA). Digitized micrographs were obtained usinga digital camera (Spot, BFI Optilas, France). PMN cells identified by the shape of their nuclei stained with DAPI, were quantified on histological sections. The analysis was performed with 2 different sections per eye at the optic nerve head level.
Twenty-four hours after LPS induction, clinical scores for the vehicle-treated rats were 4.6±0.2 (mean±SEM, n=8). Reduction was calculated as (grade in vehicle-treated eye—grade in test item treated eye)/(grade in vehicle-treated eye). A significant reduction (*p<0.05, **p<0.01) in the severity of the ocular inflammation was detected 24 hours after induction and intravenous treatment with the JNK inhibitor according to SEQ ID NO: 172 (“XG-104”) (1 mg/kg) administered 48 hours before EIU induction (mean score: 2.8±0.3), corresponding to a 40% (**) decrease of EIU scores compared with the score observed in vehicle group, 24 hours after induction and intravenous treatment with the JNK inhibitor according to SEQ ID NO: 172 (“XG-104”) (1 mg/kg) administered 1 week before EIU induction (mean score: 3.3±0.3), corresponding to a 27% (*) decrease of EIU scores compared with the score observed in vehicle group, and 24 hours after induction and intravenous treatment with the JNK inhibitor according to SEQ ID NO: 172 (“XG-104”) (1 mg/kg) administered 2 weeks before EIU induction (mean score: 3.0±0.2), corresponding to a 35% (**) decrease of EIU scores compared with the score observed in vehicle group. […]

[6] = tested on: Imiquimod-induced psoriasis in mice; assay: Imiquimod-induced psoriasis, ear histopathology; assay type: in vivo, mouse; settings: 10 mg/kg PO daily
Description: Female BALB/cAnNCrl mice (Charles River, age 8 to 10 weeks at study start) have been assigned to the following groups (treatment schedule):
In this experiment, two positive controls have been utilized. Firstly, Prednisolone at 10 mg/kg (vehicle: 1% Hydroxyethylcellulose, 0.25% Polysorbate 80, and 0.05% Antifoam in purified water) has been dosed daily and orally (group “Prednisolone”). Secondly, Dexamethasone has been administered at 0.5 mg/kg (vehicle: sterile 0.9% NaCl) on days 1, 4 and 7 via intravenous route.
On day 8, animals have been sacrificed and the tissue (ear) has been fixed in 10% neutral buffered formalin. For histopathology hematoxylin-and-eosin-stained sections (cross cut) have been prepared and microscopic evaluation on the collected tissues from all animals has been performed. Methods and end-points for histopathology were similarly described in the van der Fits (2009) paper in that inflammation, epidermal hyperplasia, epidermal hyperkeratosis (rather than parakeratosis) were observed and recorded for severity grade, whereby the respective methodology from Van der Fits et al. (The Journal of Immunology 2009, 182, P. 5836-5845) is hereby incorporated by reference. Histopathology grading scores were excluded for either skin or ear in animals with secondary inflammatory processes (full thickness epidermal ulcers). Scores were averaged by group and standard deviation and statistical significance were calculated. […] Formalin-fixed, paraffin embedded skin from the dorsal surface of the mouse (BALB/c) was stained with hematoxylin and eosin (H&E) stain and assessed microscopically. An important difference from the above reference and to describe in more detail the observations of the present study: Hyperkeratosis can be defined specifically as orthokeratotic (no retained nuclei) or parakeratotic (retained nuclei). Either can occur normally in various anatomical locations and depending on species; however, both conditions are well defined in particular disease states. The van der Fits paper describes their Imiquimod (IMQ)-induced psoriasis model as causing parakeratotic hyperkeratosis similar to what is seen in the human condition, and that was a defined end-point for this study. However, the Danilenko et al. (Veterinary Pathology 2008 45:563) has shown that many rodent psoriasis models have orthokeratotic hyperkeratosis. […] The more general term ‘hyperkeratosis’ was used for grading end-points and describe in the text what type was seen (primarily orthokeratotic).
Microscopic Histopathology end-points were graded as such: […]

[7] = vs disease controls, IV QD d1-14, Dex 0.05 mg/kg, SEQ ID NO: 172 up to 5 mg/kg

SMILES: CC(C)C[C@H](NC(=O)[C@H](CC(N)=O)NC(=O)[C@H](CC(C)C)NC(=O)[C@@H](NC(=O)[C@@H](NC(=O)[C@@H]1CCCN1C(=O)[C@H](CCCNC(=N)N)NC(=O)[C@H](CCCCN)NC(=O)[C@@H]1CCCN1C(=O)[C@H](CCCNC(=N)N)NC(=O)[C@@H]1CCCN1C(=O)[C@@H]1CCCN1C(=O)[C@H](CCCNC(=N)N)NC(=O)[C@H](CCCNC(=N)N)NC(=O)[C@H](CCCNC(=N)N)NC(=O)[C@H](CCC(N)=O)NC(=O)[C@H](CCCNC(=N)N)NC(=O)[C@H](CCCNC(=N)N)NC(=O)[C@H](CCCCN)NC(=O)[C@H](CCCCN)NC(=O)[C@H](CCCNC(=N)N)NC(=O)CN)[C@@H](C)O)[C@@H](C)O)C(=O)N[C@@H](Cc1ccccc1)C(=O)N1CCC[C@H]1C(=O)N[C@@H](CCC(N)=O)C(=O)N[C@H](C(=O)N1CCC[C@H]1C(=O)N[C@@H](CCCNC(=N)N)C(=O)N[C@@H](CO)C(=O)N[C@@H](CCC(N)=O)C(=O)N[C@@H](CC(=O)O)C(N)=O)C(C)C [SEQ ID NO: 196, reference compound] (H-GRKKRRQRRRPPRPKRPTTLNLFPQVPRSQD-NH2)
- time until totally degraded into amino acids residues [1]: ≤ 6 h

SMILES: CC(C)Cc1ccc(C(C)C(=O)O)cc1 (stereo not shown) [ibuprofen, reference compound]
- urine observation [2]: reddish urine was noticed for some animal
- haemorrhage scores vs vehicle ([2]; 24 h after CYP): no significant change
- nociceptive scores vs vehicle ([2]; 24 h after CYP): significant decrease
- nociceptive threshold vs vehicle ([2]; 24 h after CYP): significantly increased
- oedema scores vs vehicle ([2]; 24 h after CYP): significant decrease
- urinary bladder wall thickness vs vehicle ([2]; 24 h after CYP): significant decrease

SMILES: C[C@@H]1C[C@H]2[C@@H]3CCC4=CC(=O)C=C[C@]4(C)[C@@]3(F)[C@@H](O)C[C@]2(C)[C@@]1(O)C(=O)CO [dexamethasone, reference compound]
- clinical score (mean±SEM) [3]: 0.8±0.2
- clinical score, median [3]: 0.5
- ankle diameter AUC, reduction toward normal ([4]; 0.05 mg/kg IV QD d1-14): 97%
- inhibition of body weight loss vs disease controls ([4]; 0.05 mg/kg IV QD d1-14): 21%
- final paw weights, reduction toward normal ([4]; Dex 0.05 mg/kg IV QD d1-14): 114%
- spleen weights relative to body weight [4, 7]: significantly (p<0.05 by ANOVA) reduced
- thymus weights relative to body weight [4, 7]: significantly (p<0.05 by ANOVA) reduced
- clinical score (mean±SEM) [5]: 1.4±0.2
- decrease of clinical scores vs vehicle group [5]: 69%

SMILES: C[C@]12C=CC(=O)C=C1CC[C@@H]1[C@@H]2[C@@H](O)C[C@@]2(C)[C@H]1CC[C@]2(O)C(=O)CO [Prednisolone, reference compound]
- epidermal hyperkeratosis of the ear (average grades) [6]: minimally decreased average grades
- inflammation of the ear (average grade) vs vehicle-IMQ [6]: decreased inflammation of the ear
- inflammation of the ear (average grade) vs vehicle-IMQ ([6]; listed as prednisolone): significant differences from the vehicle control group
